For assay [1], the system named is rabbit serum obtained by immunizing a rabbit with the SARS-CoV strain Frankfurt 1. In kind it is binding. More on the design: Binding of a rabbit serum to linear peptides / Binding of a rabbit serum to looped peptides / Rabbit serum linear peptides / Rabbit serum looped peptides / Binding of a rabbit serum to linear peptides of protein N of SARS-CoV Urbani (Rabbit serum linear peptides) / Binding of a rabbit serum to looped/cyclic peptides of protein N of SARS-CoV Urbani (Rabbit serum looped peptides): unit not given here.

The test system of assay [2] is control sera (pooled serum of ten healthy LUMC hospital workers; commercial negative donor pooled serum from the Dutch bloodbank). The format is binding, human.
Assay [3] has as its system antibodies in sera from SARS patients (sera 1a, 1b, 2, 6, 37, 62, London, SARS-yellow, SARS-green). In kind it is binding, human. Also on record: Binding of serum 6 to linear peptides of protein X1 of SARS-CoV Urbani / Binding of serum 37 to linear peptides of protein X1 of SARS-CoV Urbani / Binding of serum 6 to looped/cyclic peptide (PEPSCAN-ELISA) / Binding of serum 37 to looped/cyclic peptide (PEPSCAN-ELISA) / Binding of serum 37 to looped/cyclic peptides of protein X1 of SARS-CoV Urbani / Binding of serum 6 to linear peptides of protein X2 / Binding of serum 37 to linear peptides of protein X2 / Binding of serum 37 to looped/cyclic peptides of protein X2 of SARS-CoV Urbani / Binding of serum 6 to linear peptides of protein M of SARS-CoV Urbani / Binding of serum 37 to linear peptides of protein M of SARS-CoV Urbani / Binding of serum 6 to looped/cyclic peptides of protein M of SARS-CoV Urbani / Binding of serum 37 to looped/cyclic peptides of protein M of SARS-CoV Urbani / Binding of serum 6 to linear peptides of protein X3 of SARS-CoV Urbani / Binding of serum 37 to linear peptides of protein X3 of SARS-CoV Urbani / Binding of serum 37 to looped/cyclic peptides of protein X3 of SARS-CoV Urbani / Binding of serum 6 to linear peptides of protein X4 of SARS-CoV Urbani / Binding of serum 37 to linear peptides of protein X4 of SARS-CoV Urbani / Binding of serum 37 to looped/cyclic peptides of protein X4 of SARS-CoV Urbani / Binding of serum 6 to linear peptides of protein X5 of SARS-CoV Urbani / Binding of serum 37 to linear peptides of protein X5 of SARS-CoV Urbani / Binding of serum 37 to looped/cyclic peptides of protein X5 of SARS-CoV Urbani / Binding of serum 6 to linear peptides of protein N of SARS-CoV Urbani / Binding of serum 37 to linear peptides of protein N of SARS-CoV Urbani / Binding of serum 6 to linear peptide (PEPSCAN-ELISA) / Binding of serum 1a to looped/cyclic peptides of protein N of SARS-CoV Urbani / Binding of serum 1b to looped/cyclic peptides of protein N of SARS-CoV Urbani / Binding of serum 2 to looped/cyclic peptides of protein N of SARS-CoV Urbani / Binding of serum 6 to looped/cyclic peptides of protein N of SARS-CoV Urbani / Binding of serum 37 to looped/cyclic peptides of protein N of SARS-CoV Urbani / Binding of serum 62 to looped/cyclic peptides of protein N of SARS-CoV Urbani / Binding of serum London to looped/cyclic peptides of protein N of SARS-CoV Urbani / Binding of serum SARS-green to looped/cyclic peptides of protein N of SARS-CoV Urbani: unit not given here.

On to QQWIQFMMSRRRLLA, for which, in assay [1], the “Binding of a rabbit serum to linear peptides” value is 0.8 and the “Binding of a rabbit serum to looped peptides” value was found to be 1.5. In assay [2], the “Binding of Control Serum Blood-Bank to Looped peptides” value came out at 0.7, the “Binding of Control serum Blood-bank to linear peptides” value is reported as 0.8, the “Binding of Control serum LUMC to linear peptides” value was found to be 0.6 and the “Binding of Control serum LUMC to looped peptides” value was 0.5. In assay [3], the “Binding of serum 1a to linear peptides of protein X2” value is recorded as 0.6, the “Binding of serum 1a to looped/cyclic peptides of protein X2 of SARS-CoV Urbani” value turned out to be 0.6, the “Binding of serum 1b to linear peptides of protein X2” value is listed as 0.4 and the “Binding of serum 1b to looped/cyclic peptides of protein X2 of SARS-CoV Urbani” value amounted to 0.5. In addition, in assay [3], the “Binding of serum 2 to linear peptides of protein X2” value is on record as 0.4, the “Binding of serum 2 to looped/cyclic peptides of protein X2 of SARS-CoV Urbani” value came out at 0.6, the “Binding of serum 6 to linear peptides of protein X2” value was found to be 0.8 and the “Binding of serum 6 to looped/cyclic peptides of protein X2 of SARS-CoV Urbani” value was determined as 0.4. Also, in assay [3], the “Binding of serum 37 to linear peptides of protein X2” value is recorded as 0.6, the “Binding of serum 37 to looped/cyclic peptides of protein X2 of SARS-CoV Urbani” value came out at 0.6, the “Binding of serum 62 to linear peptides of protein X2” value is 0.6 and the “Binding of serum 62 to looped/cyclic peptides of protein X2 of SARS-CoV Urbani” value is 0.8. In addition, in assay [3], the “Binding of serum London to linear peptides of protein X2” value is listed as 0.5, the “Binding of serum London to looped/cyclic peptides of protein X2 of SARS-CoV Urbani” value is 0.3, the “Binding of serum SARS-green to linear peptides of protein X2” value was determined as 0.6 and the “Binding of serum SARS-green to looped/cyclic peptides of protein X2 of SARS-CoV Urbani” value turned out to be 0.5. In assay [3], the “Binding of serum SARS-yellow to linear peptides of protein X2” value worked out at 0.6 and the “Binding of serum SARS-yellow to looped/cyclic peptides of protein X2 of SARS-CoV Urbani” value is reported as 0.4.

Turning to QTLVLKMLHSSSLTS, in assay [1], the “Binding of a rabbit serum to linear peptides” value amounted to 0.3 and the “Binding of a rabbit serum to looped peptides” value is 0.4. Also, in assay [2], the “Binding of Control Serum Blood-Bank to Looped peptides” value was 0.5, the “Binding of Control serum Blood-bank to linear peptides” value is recorded as 0.7, the “Binding of Control serum LUMC to linear peptides” value amounted to 0.4 and the “Binding of Control serum LUMC to looped peptides” value amounted to 0.6. Also, in assay [3], the “Binding of serum 1a to linear peptides of protein X2” value is reported as 0.7, the “Binding of serum 1a to looped/cyclic peptides of protein X2 of SARS-CoV Urbani” value was determined as 0.6, the “Binding of serum 1b to linear peptides of protein X2” value is listed as 0.5 and the “Binding of serum 1b to looped/cyclic peptides of protein X2 of SARS-CoV Urbani” value is 0.4. Besides, in assay [3], the “Binding of serum 2 to linear peptides of protein X2” value turned out to be 0.5, the “Binding of serum 2 to looped/cyclic peptides of protein X2 of SARS-CoV Urbani” value was 0.3, the “Binding of serum 6 to linear peptides of protein X2” value stood at 0.5 and the “Binding of serum 6 to looped/cyclic peptides of protein X2 of SARS-CoV Urbani” value came to 0.5. For the same sequence, in assay [3], the “Binding of serum 37 to linear peptides of protein X2” value came to 0.5, the “Binding of serum 37 to looped/cyclic peptides of protein X2 of SARS-CoV Urbani” value worked out at 0.4, the “Binding of serum 62 to linear peptides of protein X2” value was determined as 0.6 and the “Binding of serum 62 to looped/cyclic peptides of protein X2 of SARS-CoV Urbani” value is recorded as 0.6. Besides, in assay [3], the “Binding of serum London to linear peptides of protein X2” value stood at 0.4, the “Binding of serum London to looped/cyclic peptides of protein X2 of SARS-CoV Urbani” value worked out at 0.9, the “Binding of serum SARS-green to linear peptides of protein X2” value amounted to 0.5 and the “Binding of serum SARS-green to looped/cyclic peptides of protein X2 of SARS-CoV Urbani” value was determined as 0.3. Besides, in assay [3], the “Binding of serum SARS-yellow to linear peptides of protein X2” value is reported as 0.7 and the “Binding of serum SARS-yellow to looped/cyclic peptides of protein X2 of SARS-CoV Urbani” value is listed as 0.4.

For the origin of these results see patent US20070128217A1 (priority 2003, published 2007).
